Reference: ChEMBL document CHEMBL1201862, “PubChem BioAssay data set” (2004)
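Five compound concentrations were applied to cells in 96-well plates for 48 hours; endpoints were derived by simple linear interpolation of the resulting dose-response curve. GI50 marks 50% less growth.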 Calls of active or inactive are those of the source. Rule as the data show it: active = GI50 up to about 1.1 µM and inactive = higher.

How the values were obtained:
Assay in all cases: NCI tumour cell line growth inhibition, 48 h
UACC-257 = system: UACC-257
NCI-H522 = system: NCI-H522
M14 = system: M14
SK-MEL-5 = system: SK-MEL-5
MDA-MB-231 = system: MDA-MB-231
T47D = system: T47D
TK-10 = system: TK-10
RXF 393 = system: RXF 393
SNB-75 = system: SNB-75
SF-295 = system: SF-295
SF-539 = system: SF-539
UACC-62 = system: UACC-62
KM12 = system: KM12
SF-268 = system: SF-268
CCRF-CEM = system: CCRF-CEM
SNB-19 = system: SNB-19
MDA-N = system: MDA-N
OVCAR-5 = system: OVCAR-5
IGROV-1 = system: IGROV-1
HT-29 = system: HT-29

Compound | GI50 (UACC-257) | GI50 (NCI-H522) | GI50 (M14) | GI50 (SK-MEL-5) | GI50 (MDA-MB-231) | GI50 (T47D) | GI50 (TK-10) | GI50 (RXF 393) | GI50 (SNB-75) | GI50 (SF-295) | GI50 (SF-539) | GI50 (UACC-62) | GI50 (KM12) | GI50 (SF-268) | GI50 (CCRF-CEM) | GI50 (SNB-19) | GI50 (MDA-N) | GI50 (OVCAR-5) | GI50 (IGROV-1) | GI50 (HT-29)
CC(=O)O[C@H]1C(=O)[C@@]2(C)[C@H]([C@H](OC(=O)C3CCCCC3)[C@]3(O)C[C@H](OC(=O)[C@H](O)[C@@H](NC(=O)C4CCCCC4)C4CCCCC4)C(C)=C1C3(C)C)[C@]1(OC(C)=O)CO[C@@H]1C[C@@H]2O | 0.0389 µM (active) | 0.00658 µM (active) | 0.00889 µM (active) | 0.0147 µM (active) | 0.0336 µM (active) | 0.0219 µM (active) | 0.0451 µM (active) | 0.0407 µM (active) | 0.0508 µM (active) | 0.0321 µM (active) | 0.0366 µM (active) | 0.0163 µM (active) | 0.0101 µM (active) | 0.408 µM (active) | 0.0234 µM (active) | 0.057 µM (active) | 0.0025 µM (active) | 0.0224 µM (active) | 0.027 µM (active) | –
Nc1ncnc2c1ncn2C1OC(CO)C(O)C1NS(=O)(=O)c1ccccc1 (stereo unspecified) | > 100 µM (inactive) | > 100 µM (inactive) | > 100 µM (inactive) | > 100 µM (inactive) | > 100 µM (inactive) | > 100 µM (inactive) | > 100 µM (inactive) | > 100 µM (inactive) | > 100 µM (inactive) | > 100 µM (inactive) | > 100 µM (inactive) | > 100 µM (inactive) | > 100 µM (inactive) | > 100 µM (inactive) | > 100 µM (inactive) | > 100 µM (inactive) | > 100 µM (inactive) | > 100 µM (inactive) | > 100 µM (inactive) | > 100 µM (inactive)
O=C1C(Br)=CC2(C=C1Br)CCNC1=C2C(=O)c2ncccc2C1=O | 0.631 µM (active) | 0.353 µM (active) | 1.55 µM (inactive) | 0.533 µM (active) | 1.75 µM (inactive) | 1.97 µM (inactive) | 2.32 µM (inactive) | 1 µM (active) | 1.4 µM (inactive) | 1.37 µM (inactive) | 0.318 µM (active) | 0.641 µM (active) | 1.25 µM (inactive) | 1.49 µM (inactive) | 1.58 µM (inactive) | 1.28 µM (inactive) | 0.183 µM (active) | 1.67 µM (inactive) | 0.54 µM (active) | 1.99 µM (inactive)
O=C1OC(OC/C(Br)=C(\Br)COC2OC(=O)C(Cl)=C2Cl)C(Cl)=C1Cl (stereo unspecified) | 9.68 µM (inactive) | 1.71 µM (inactive) | 3.66 µM (inactive) | 8.83 µM (inactive) | 4.74 µM (inactive) | 12.6 µM (inactive) | 4.67 µM (inactive) | 2.39 µM (inactive) | 15.9 µM (inactive) | 18.3 µM (inactive) | 6.89 µM (inactive) | 6.3 µM (inactive) | 15.2 µM (inactive) | 8.43 µM (inactive) | 0.659 µM (active) | 17.1 µM (inactive) | 3.65 µM (inactive) | 12.9 µM (inactive) | 12.3 µM (inactive) | 2.55 µM (inactive)
CC(C)CCC1(CCN)C(=O)NC(=O)NC1=O | > 100 µM (inactive) | > 100 µM (inactive) | > 100 µM (inactive) | > 100 µM (inactive) | > 100 µM (inactive) | > 100 µM (inactive) | > 100 µM (inactive) | > 100 µM (inactive) | > 100 µM (inactive) | > 100 µM (inactive) | > 100 µM (inactive) | > 100 µM (inactive) | > 100 µM (inactive) | > 100 µM (inactive) | 19.6 µM (inactive) | > 100 µM (inactive) | > 100 µM (inactive) | > 100 µM (inactive) | > 100 µM (inactive) | > 100 µM (inactive)
O=C(O)c1ccccc1Sc1ccccc1[N+](=O)[O-] | > 100 µM (inactive) | > 100 µM (inactive) | > 100 µM (inactive) | > 100 µM (inactive) | > 100 µM (inactive) | > 100 µM (inactive) | > 100 µM (inactive) | > 100 µM (inactive) | 76.9 µM (inactive) | > 100 µM (inactive) | > 100 µM (inactive) | > 100 µM (inactive) | > 100 µM (inactive) | > 100 µM (inactive) | > 100 µM (inactive) | > 100 µM (inactive) | > 100 µM (inactive) | > 100 µM (inactive) | > 100 µM (inactive) | > 100 µM (inactive)
Cn1cc(NC(=O)Nc2cc(C(=O)Nc3cc(C(=O)Nc4cc(S(=O)(=O)O)c5cc(S(=O)(=O)O)cc(S(=O)(=O)O)c5c4)n(C)c3)n(C)c2)cc1C(=O)Nc1cc(C(=O)Nc2cc(S(=O)(=O)O)c3cc(S(=O)(=O)O)cc(S(=O)(=O)O)c3c2)n(C)c1 | > 100 µM (inactive) | > 100 µM (inactive) | > 100 µM (inactive) | > 100 µM (inactive) | > 100 µM (inactive) | > 100 µM (inactive) | 87.1 µM (inactive) | > 100 µM (inactive) | 50.1 µM (inactive) | > 100 µM (inactive) | > 100 µM (inactive) | > 100 µM (inactive) | > 100 µM (inactive) | > 100 µM (inactive) | > 100 µM (inactive) | > 100 µM (inactive) | > 100 µM (inactive) | > 100 µM (inactive) | 5.64 µM (inactive) | > 100 µM (inactive)
Cc1ccc2c(c1)nc1n2C(N)=Nc2ccccc2S1 | > 67.5 µM (inactive) | > 63.2 µM (inactive) | 3.44 µM (inactive) | 28.2 µM (inactive) | > 21 µM (inactive) | 46.6 µM (inactive) | > 100 µM (inactive) | > 100 µM (inactive) | > 54.6 µM (inactive) | 47.6 µM (inactive) | > 95.5 µM (inactive) | > 60.8 µM (inactive) | 43.8 µM (inactive) | 48.1 µM (inactive) | 2.65 µM (inactive) | 35.8 µM (inactive) | 5.78 µM (inactive) | > 75.7 µM (inactive) | 6.4 µM (inactive) | 15.8 µM (inactive)
Cc1ccc2oc(=O)c3c(O)c4cccc(OC5OC(C)C6O[C@@H](c7ccccc7)OC6C5OC5OC(C)C(O)C(O)C5O)c4c4oc(=O)c1c2c34 (stereo partly specified) | – | 0.0574 µM (active) | 0.187 µM (active) | 0.0509 µM (active) | 0.197 µM (active) | 0.0585 µM (active) | 0.392 µM (active) | 0.187 µM (active) | 0.0492 µM (active) | 0.0303 µM (active) | 0.0571 µM (active) | 0.0449 µM (active) | 0.0785 µM (active) | 0.0545 µM (active) | 0.0182 µM (active) | 0.334 µM (active) | 0.121 µM (active) | 0.162 µM (active) | 0.0264 µM (active) | 0.0472 µM (active)
CC1=CC(=O)C(C(O)(C(F)(F)F)C(F)(F)F)C(C)(C)C1 (stereo unspecified) | > 10 µM (inactive) | > 10 µM (inactive) | > 10 µM (inactive) | > 10 µM (inactive) | > 10 µM (inactive) | > 10 µM (inactive) | > 10 µM (inactive) | > 10 µM (inactive) | > 10 µM (inactive) | > 10 µM (inactive) | > 10 µM (inactive) | > 10 µM (inactive) | > 10 µM (inactive) | > 10 µM (inactive) | > 10 µM (inactive) | > 10 µM (inactive) | > 10 µM (inactive) | – | > 10 µM (inactive) | > 10 µM (inactive)
CC1=CC23C(COC(=O)C24CO4)C(C(=O)O)=CC3C1C (stereo unspecified) | 29 µM (inactive) | 1.37 µM (inactive) | 7.55 µM (inactive) | 25.2 µM (inactive) | 10.9 µM (inactive) | 6.21 µM (inactive) | 21.2 µM (inactive) | 3.55 µM (inactive) | 17.7 µM (inactive) | 24.3 µM (inactive) | 15 µM (inactive) | 12.8 µM (inactive) | 6.73 µM (inactive) | 4.93 µM (inactive) | 5.86 µM (inactive) | 5.33 µM (inactive) | 24 µM (inactive) | 24.4 µM (inactive) | 24.1 µM (inactive) | 16.2 µM (inactive)
O=[N+]([O-])c1ccc(/C(=N/c2ccccc2)SS/C(=N\c2ccccc2)c2ccc([N+](=O)[O-])o2)o1 | 2.11 µM (inactive) | 0.243 µM (active) | 1.98 µM (inactive) | 5.78 µM (inactive) | 2.74 µM (inactive) | 2.2 µM (inactive) | 3.13 µM (inactive) | 1.75 µM (inactive) | 1.66 µM (inactive) | 2.76 µM (inactive) | 0.83 µM (active) | 1.61 µM (inactive) | 1.68 µM (inactive) | 1.8 µM (inactive) | 2.03 µM (inactive) | 1.84 µM (inactive) | 2.72 µM (inactive) | 2.08 µM (inactive) | 1.6 µM (inactive) | 1.35 µM (inactive)
COc1ccc2c(c1)-c1c(c3cc(OC)ccc3n1CCN(C)C)CC2 | 15.6 µM (inactive) | 17.9 µM (inactive) | 13.7 µM (inactive) | 12.4 µM (inactive) | 13.9 µM (inactive) | 17.6 µM (inactive) | 15.5 µM (inactive) | 13.5 µM (inactive) | 21.9 µM (inactive) | 17.8 µM (inactive) | 15.4 µM (inactive) | 10.9 µM (inactive) | 14 µM (inactive) | 18.3 µM (inactive) | 6.35 µM (inactive) | – | 14.2 µM (inactive) | 15.7 µM (inactive) | 12.1 µM (inactive) | 5.18 µM (inactive)
